The values below come from patent US10138254B2, “Bicyclic compounds as pest control agents” (BAYER CROPSCIENCE AKTIENGESELLSCHAFT, priority 2014, dated 2018).

Read-outs that look alike come from different tables or passages of the source.

Series [1] is described as follows: log P by HPLC on reversed-phase (C18) columns, OECD Guideline 117. Conditions: for chromatographic logP: reversed-phase (C18) HPLC column. It counts as physicochemical. On the procedure: The log P values were determined in accordance with OECD Guideline 117 (EC Directive 92/69/EEC) by HPLC (high-performance liquid chromatography) using reversed-phase (RP) columns (C18), by the following methods: [a] The LC-MS determination in the acidic range is carried out at pH 2.7 with 0.1% aqueous formic acid and acetonitrile (contains 0.1% formic acid) as eluents; linear gradient from 10% acetonitrile to 95% acetonitrile. [b] LC-MS determination in the neutral range is effected at pH 7.8 with 0.001 molar aqueous ammonium hydrogencarbonate solution and acetonitrile as eluents; linear gradient from 10% acetonitrile to 95% acetonitrile. Calibration is carried out using unbranched alkan-2-ones (having 3 to 16 carbon atoms) with known log P values (log P values determined on the basis of the retention times by linear interpolation between two successive alkanones).

Series [2] relates to green peach aphid (Myzus persicae). The series is described as follows: Myzus persicae spray test (Chinese cabbage leaf discs). The series is classed as in vivo. Conditions: application rate 500 g/ha, after 6 days, 100% = all aphids killed; for pest or weed control at 500 g/ha: Myzus persicae, foliar, 144 h, read-out: efficacy. The procedure: Myzus persicae—Spray Test Solvent: 78 parts by weight of acetone • • 1.5 parts by weight of dimethylformamide Emulsifier: alkylaryl polyglycol ether To produce a suitable active ingredient formulation, 1 part by weight of active ingredient is dissolved with the specified parts by weight of solvent and made up with water containing an emulsifier concentration of 1000 ppm until the desired concentration is attained. To produce further test concentrations, the formulation is diluted with emulsifier-containing water. Discs of Chinese cabbage leaves (Brassica pekinensis) infested by all stages of the green peach aphid (Myzus persicae) are sprayed with an active ingredient formulation of the desired concentration. After 6 days, the efficacy in % is determined. 100% means that all the aphids have been killed; 0% means that no aphids have been killed.

Setting [3] is: acidic range, pH 2.7, 0.1% aqueous formic acid and acetonitrile.
The mark [4] stands for this setting: neutral range, pH 7.8, 0.001 molar aqueous ammonium hydrogencarbonate and acetonitrile.
[5] abbreviates: acidic range, pH 2.7, 0.1% aqueous formic acid and acetonitrile, read-out: LogP[a].
The mark [6] stands for this setting: neutral range, pH 7.8, 0.001 molar aqueous ammonium hydrogencarbonate and acetonitrile, read-out: logP[b].

As to `c1ccc(-c2cnc3nc(-c4cccnc4)sc3c2)cc1` [Example 1], the “LogP[a]” value in series [1] (setting [3]) stood at 2.47. The “logP[b]” value in series [1] (setting [4]) is recorded as 2.56.

On to `Cc1ccccc1-c1cnc2nc(-c3cccnc3)sc2c1` [Example 2, 6-(2-Methylphenyl)-2-(pyridin-3-yl)[1,3]thiazolo[4,5-b]pyridine], for which the chromatographic logP stood at 2.76 in series [1] (setting [5]) and 2.8 in series [1] (setting [6]). The pest or weed control at 500 g/ha in series [2] amounted to 100%.

Take `Cc1cccc(-c2cnc3nc(-c4cccnc4)sc3c2)c1` [Example 3]: in series [1] (setting [3]), the “LogP[a]” value was found to be 2.91. In addition, in series [1] (setting [4]), the “logP[b]” value is 2.95.

As to `Cc1ccc(-c2cnc3nc(-c4cccnc4)sc3c2)cc1` [Example 4], the “LogP[a]” value in series [1] (setting [3]) came to 2.91. The “logP[b]” value in series [1] (setting [4]) is given as 2.96. The same compound came in with an efficacy in series [2] of 100%.

As to `Fc1ccccc1-c1cnc2nc(-c3cccnc3)sc2c1` [Example 5], the “LogP[a]” value in series [1] (setting [3]) amounted to 2.51. Also, the “logP[b]” value in series [1] (setting [4]) was determined as 2.54.

For the compound `Clc1ccccc1-c1cnc2nc(-c3cccnc3)sc2c1` [Example 6], the “LogP[a]” value in series [1] (setting [3]) was determined as 2.77. Moreover, the “logP[b]” value in series [1] (setting [4]) stood at 2.78. The efficacy in series [2] is recorded as 100%.

Take `Clc1cccc(-c2cnc3nc(-c4cccnc4)sc3c2)c1` [Example 7, 6-(3-Chlorophenyl)-2-(pyridin-3-yl)[1,3]thiazolo[4,5-b]pyridine]: the chromatographic logP was 2.98 in series [1] (setting [5]) and 3.01 in series [1] (setting [6]). Moreover, the pest or weed control at 500 g/ha in series [2] was 100%.

Regarding `Clc1ccc(-c2cnc3nc(-c4cccnc4)sc3c2)cc1` [Example 8], the “LogP[a]” value in series [1] (setting [3]) is on record as 2.98. The “logP[b]” value in series [1] (setting [4]) is on record as 3.03.

In the case of `CSc1cccc(-c2cnc3nc(-c4cccnc4)sc3c2)c1` [Example 9], the “logP[b]” value in series [1] (setting [4]) is given as 2.96. Besides, the efficacy in series [2] came out at 100%.

In the case of `CCSc1cccc(-c2cnc3nc(-c4cccnc4)sc3c2)c1` [Example 10], the “logP[b]” value in series [1] (setting [4]) is on record as 3.36.

With `CCSc1ccc(-c2cnc3nc(-c4cccnc4)sc3c2)cc1` [Example 11], the “LogP[a]” value in series [1] (setting [3]) came out at 3.34. In addition, the “logP[b]” value in series [1] (setting [4]) stood at 3.37.

Consider `CC[S+]([O-])c1ccc(-c2cnc3nc(-c4cccnc4)sc3c2)cc1` (stereo not drawn) [Example 12], for which, in series [1] (setting [3]), the “LogP[a]” value is 1.58. In addition, in series [1] (setting [4]), the “logP[b]” value came out at 1.86.

For the compound `CC[S+]([O-])c1ccc(-c2cnc3nc(-c4ccc[n+]([O-])c4)sc3c2)cc1` (stereo not drawn) [Example 13], in series [1] (setting [3]), the “LogP[a]” value worked out at 1.85. Also, the “logP[b]” value in series [1] (setting [4]) turned out to be 1.85. Besides, in series [2], the efficacy is 90%.

On to `CCSc1ccccc1-c1cnc2nc(-c3cccnc3)sc2c1` [Example 14, 6-[2-(Ethylsulphanyl)phenyl]-2-(pyridin-3-yl)[1,3]thiazolo[4,5-b]pyridine], for which the chromatographic logP in series [1] (setting [5]) was 3.12; in series [1] (setting [6]), 3.13.

With `CC[S+]([O-])c1ccccc1-c1cnc2nc(-c3cccnc3)sc2c1` (stereo not drawn) [Example 15, 6-[2-(Ethylsulphinyl)phenyl]-2-(pyridin-3-yl)[1,3]thiazolo[4,5-b]pyridine], the chromatographic logP was determined as 1.58 in series [1] (setting [5]) and 1.59 in series [1] (setting [6]).

As to `CC[S+]([O-])c1ccccc1-c1cnc2nc(-c3ccc[n+]([O-])c3)sc2c1` (stereo not drawn) [Example 16, 6-[2-(Ethylsulphinyl)phenyl]-2-(1-oxidopyridin-3-yl)[1,3]thiazolo[4,5-b]pyridine], the chromatographic logP in series [1] (setting [5]) was 1.86; in series [1] (setting [6]), 1.87. In addition, the pest or weed control at 500 g/ha in series [2] was found to be 90%.

In the case of `Cc1ccc(-c2cnc3nc(-c4cccnc4)sc3c2)cc1SCC(F)(F)F` [Example 17], the “LogP[a]” value in series [1] (setting [3]) worked out at 3.74. In series [1] (setting [4]), the “logP[b]” value is listed as 3.68. The compound further registered an efficacy in series [2] of 90%.

Turning to `Cc1ccc(-c2cnc3nc(-c4cccnc4)sc3c2)cc1[S+]([O-])CC(F)(F)F` (stereo not drawn) [Example 18], the “LogP[a]” value in series [1] (setting [3]) stood at 2.4. For the same compound, in series [1] (setting [4]), the “logP[b]” value is 2.34. Moreover, the efficacy in series [2] turned out to be 90%.

`Cc1cc(C)c(-c2cnc3nc(-c4cccnc4)sc3c2)cc1SCC(F)(F)F` [Example 19, 6-{2,4-Dimethyl-5-[(2,2,2-trifluoroethyl)sulphanyl]phenyl}-2-(pyridin-3-yl)[1,3]thiazolo[4,5-b]pyridine]: the results for the chromatographic logP in series [1] (setting [5]) and in series [1] (setting [6]) were 3.97 and 3.95, respectively. In series [2], the pest or weed control at 500 g/ha is 100%.

As to `Cc1cc(C)c([S+]([O-])CC(F)(F)F)cc1-c1cnc2nc(-c3cccnc3)sc2c1` (stereo not drawn) [Example 20, 6-{2,4-Dimethyl-5-[(2,2,2-trifluoroethyl)sulphinyl]phenyl}-2-(pyridin-3-yl)[1,3]thiazolo[4,5-b]pyridine], the chromatographic logP in series [1] (setting [5]) was found to be 2.54; in series [1] (setting [6]) it was 2.52. Also, the pest or weed control at 500 g/ha in series [2] was determined as 90%.

On to `Cc1cc(F)c(-c2cnc3nc(-c4cccnc4)sc3c2)cc1[S+]([O-])CC(F)(F)F` (stereo not drawn) [Example 23, 6-{2-Fluoro-4-methyl-5-[(2,2,2-trifluoroethyl)sulphinyl]phenyl}-2-(pyridin-3-yl)[1,3]thiazolo[4,5-b]pyridine], for which the chromatographic logP stood at 2.5 in series [1] (setting [5]) and 2.46 in series [1] (setting [6]). In addition, the pest or weed control at 500 g/ha in series [2] was determined as 90%.

Turning to `c1ccc(Nc2cnc3nc(-c4cccnc4)sc3c2)cc1` [Example 24], the “LogP[a]” value in series [1] (setting [3]) was 2.25. The “logP[b]” value in series [1] (setting [4]) stood at 2.27.

Turning to `Clc1cccc(Nc2cnc3nc(-c4cccnc4)sc3c2)c1` [Example 25, N-(3-Chlorophenyl)-2-(pyridin-3-yl)[1,3]thiazolo[4,5-b]pyridin-6-amine], the chromatographic logP in series [1] (setting [5]) turned out to be 2.66; in series [1] (setting [6]), 2.69. Besides, the pest or weed control at 500 g/ha in series [2] stood at 90%.

Take `c1cncc(-c2nc3ncc(-n4cccn4)cc3s2)c1` [Example 26, 6-(1H-Pyrazol-1-yl)-2-(pyridin-3-yl)[1,3]thiazolo[4,5-b]pyridine]: in series [1] (setting [6]), the chromatographic logP turned out to be 1.62. Besides, the pest or weed control at 500 g/ha in series [2] turned out to be 90%.

Consider `FC(F)(F)c1ccn(-c2cnc3nc(-c4cccnc4)sc3c2)n1` [Example 27], for which, in series [1] (setting [6]), the chromatographic logP was 2.57.

Turning to `FC(F)(F)c1cnn(-c2cnc3nc(-c4cccnc4)sc3c2)c1` [Example 28], the “LogP[a]” value in series [1] (setting [3]) stood at 2.48. In addition, the “logP[b]” value in series [1] (setting [4]) came out at 2.53.

`Cn1cnn(-c2cnc3nc(-c4cccnc4)sc3c2)c1=S` [Example 29]: the “LogP[a]” value in series [1] (setting [3]) was 1.00. Also, the “logP[b]” value in series [1] (setting [4]) was determined as 1.07.

For `Cc1nn(-c2cnc3nc(-c4cccnc4)sc3c2)c(=O)n1C` [Example 30, 4,5-Dimethyl-2-[2-(pyridin-3-yl)[1,3]thiazolo[4,5-b]pyridin-6-yl]-2,4-dihydro-3H-1,2,4-triazol-3-one], the chromatographic logP worked out at 1.23 in series [1] (setting [5]) and 1.42 in series [1] (setting [6]). The pest or weed control at 500 g/ha in series [2] amounted to 100%.

Take `Cc1nn(-c2cnc3nc(-c4cccnc4)sc3c2)c(=S)n1C` [Example 31, 4,5-Dimethyl-2-[2-(pyridin-3-yl)[1,3]thiazolo[4,5-b]pyridin-6-yl]-2,4-dihydro-3H-1,2,4-triazole-3-thione]: the chromatographic logP in series [1] (setting [5]) amounted to 0.97; in series [1] (setting [6]), 1.21. Moreover, the pest or weed control at 500 g/ha in series [2] turned out to be 90%.

With `CSCCNC(=O)c1cnc2nc(-c3cccnc3)sc2c1` [Example 52, N-[2-(Methylsulphanyl)ethyl]-2-(pyridin-3-yl)[1,3]thiazolo[4,5-b]pyridine-6-carboxamide], the chromatographic logP in series [1] (setting [5]) was 1.39.

In the case of `CS(=O)(=O)CCNC(=O)c1cnc2nc(-c3cccnc3)sc2c1` [Example 54, N-[2-(Methylsulphonyl)ethyl]-2-(pyridin-3-yl)[1,3]thiazolo[4,5-b]pyridine-6-carboxamide], the chromatographic logP in series [1] (setting [5]) is 0.84.

`O=C(Nc1cccc(SC(F)(F)F)c1)c1cnc2nc(-c3cncc(F)c3)sc2c1` [Example 57, 2-(5-Fluoropyridin-3-yl)-N-{3-[(trifluoromethyl)sulphanyl]phenyl}[1,3]thiazolo[4,5-b]pyridine-6-carboxamide]: in series [1] (setting [5]), the chromatographic logP turned out to be 3.53.

For the compound `O=C(Nc1cccc([S+]([O-])C(F)(F)F)c1)c1cnc2nc(-c3cncc(F)c3)sc2c1` (stereo not drawn) [Example 58, 2-(5-Fluoropyridin-3-yl)-N-{3-[(trifluoromethyl)sulphinyl]phenyl}[1,3]thiazolo[4,5-b]pyridine-6-carboxamide], the chromatographic logP in series [1] (setting [5]) turned out to be 2.54.

As to `Brc1cnc2nc(-c3cccnc3)sc2c1` [I-a-1, 6-bromo-2-(pyridin-3-yl)[1,3]thiazolo[4,5-b]pyridine], the chromatographic logP in series [1] (setting [6]) is 1.95.
